Results reported in patent publication US9216208B2, “Topical ophthalmic peptide formulation” (BCN Peptides, S.A., priority 2009, dated 2015).

Columns and labels:
[1] = Evaluation of the concentration of topical ophthalmic somatostatin in the retina (Western blot); format: in vivo, C57BL/6 mice; conditions: eye drops of example 1, 1 drop of 5 μL twice a day for 5 days in right eye vs placebo in left eye; 2 hours after last dosage; Western blot densitometry
Protocol: Eight-week old C57BL/6 mice were used. The handling and care of the animals was carried out following the Institut de Recerca del Hospital Universitari Vall d'Hebron protocol and the European Economic Community and A.R.V.O. (Association for Research in Vision and Opthalmology) international guidelines (order 86/609/CEE). The animals were kept in individual cages in the animal facilities at a controlled temperature (20°) and humidity (60%), under constant cycles of light-darkness which last 12 hours and had free access to food and drink. The eye drops of somatostatin-14 from example 1 (1 drop of 5 μL) were administered to the right eye and the placebo (saline solution) to the left eye. Two drops were administered per day, one in the morning and another in the evening, for 5 days. The animals were euthanized by cervical dislocation under anesthetic 2 hours after the last dosage. Immediately afterwards the eyeballs were extracted and were frozen at −80° until handling. […] The quantity of somatostatin-14 in the retina was determined by Western blot. […] A densitometric analysis was carried out (Densitometer GS-800. Bio-Rad. Laboratories, Hercules, Calif., USA) and the results are expressed as arbitrary units. […] On control mice, who received the placebo in both eyes, no differences were detected in the concentration of somatostatin between both eyes.

[2] = test system: retinal cells of streptozotocin-induced diabetic rats; assay: Degree of apoptosis of the retina by TUNEL in diabetic rats; format: in vivo, Sprague Dawley rats; conditions: for retinal degeneration (TUNEL positive cells, confocal images): after 14 days of treatment, FIG. 4; for % Apoptotic cells GCL: ganglion cell layer; for % Apoptotic cells GCL / % Apoptotic cells INL / % Apoptotic cells ONL / % Apoptotic cells RPE: 14 days of treatment; for % Apoptotic cells INL: inner nuclear layer; for % Apoptotic cells ONL: outer nuclear layer; for % Apoptotic cells RPE: retinal pigment epithelium
Protocol: (§1) Streptozotocin (STZ), 60 mg/Kg, was administered to Sprague Dawley rats. The animals were divided in four groups as detailed in Table 1:
(§2) Two days after STZ was administered, animals were treated daily with one or two drops of vehicle (Group 2), eye drops of example 4 (Group 3) or eye drops of example 5 (Group 4) for additionally 14 days. Healthy control animals were only treated daily with one or two drops of vehicle (Group 1).
(§3) On day 14, the animals were sacrificed and ocular tissues paraffined. Glial activation and number of apoptotic cells were evaluated as markers of the first step in the development of diabetic retinopathy: retinal neurodegeneration [Carrasco et al., Diabetes Care; 2007, 30(11): 1-7].
The evaluation of the degree of apoptosis of the retina after 14 days of treatment was done by using the TUNEL (“Terminal Transferase dUTP Nick-End Labeling”) technique. The In Situ Cell Death Detection Kit (Roche Diagnostics, Mannheim, Germany) was used. Ocular sections were desparaffined, rehydrated and washed in PBS. Three confocal images (40×) corresponding to a 317.13 μm×317.13 μm surface were obtained for each section. The total number of nuclei and nuclei positive for TUNEL were quantified with the Image J software (http://rsbweb.nih.gov/ij). Staining with propidium iodide (PI) was done for examining the nucleus morphology and discard false positives. […] Retinal degeneration correlated with a higher number of apoptotic cells (brightest labeling means TUNEL positive) observed in streptozotocin-induced diabetic rats (Group 2).
The increment in the percentage of apoptotic cells is significant in diabetic rats (Group 2). Topical ocular treatment with somatostatin (Group 3) or octreotide (Group 4) reduced the number of apoptotic cells till control levels (Group 1).

[3] = test system: streptozotocin-induced diabetic rats; assay: Electroretinography after topical ocular treatment in diabetic rats; format: in vivo, Sprague Dawley rats; set-up: implicit time of the b-wave at 0 db compared to pretreatment: unit not given beside the values; conditions: for difference between the amplitude of the second OP (OP2) of the b-wave at 0 db / implicit time of the b-wave at 0 db compared to pretreatment: STZ 60 mg/kg rats; for difference between the amplitude of the second OP (OP2) of the b-wave at 0 db: FIG. 2; for implicit time of the b-wave at 0 db compared to pretreatment: after 14 days of treatment; for b-wave amplitude at −10 db and 0 db / b-wave amplitude at −30 db: compared to the diabetic group
Protocol: as §1, §2
Electroretinography is a technique used clinically to evaluate retinal function in diabetic retinopathy. Several parameters can be affected in early stages of the disease: implicit time, amplitude and oscillatory potentials [Tzekov et al., Survey of Ophthalmology, 1999, 44(1): 53-60]. The increment of the implicit time and diminishment of amplitude of the oscillatory potentials (OPs) are also observed in streptozotocin-induced diabetic rats [Hancok et al., Investigative Ophthalmology & Visual Science, 2004, 45(3): 1002-1008].

[4] = test system: Glial Fibrillar Protein (GFAP); assay: Glial activation by GFAP immunofluorescence (confocal microscopy) in retina of diabetic rats; format: in vivo, Sprague Dawley rats; conditions: for glial cell activation (GFAP expression, confocal images): day 14, ganglion cell layer, FIG. 3; for GFAP fluorescence value: day 14, normalized to the analysed area (21705.33 μm^2), diabetic Group 2 6871±159, healthy Group 1 2095±26
Protocol: as §1, §2, §3
Glial activation was determined analysing Glial Fibrillar Protein (GFAP) immunofluorescence by confocal microscopy. Ocular sections of 7 μm thickness were fixed on high adherent coverslips (Visionbiosystems, Newcastle Upon Tyne, UK). They were desparaffined, rehydrated and washed in phosphate buffer saline (PBS). Unspecific unions were blocked incubating the samples for 1 h in PBS 1% BSA (Bovine Serum Albumin) 0.5% Triton X-100. Thereafter, the primary rabbit anti-human GFAP antibody (Sigma, Madrid, Spain) diluted in the blocking buffer (1:100) was incubated for 36 h at 4° C. After three washings for 5 min with PBS, sections were incubated with a secondary antibody anti […] labelled with Alexa Fluor® 488 (Invitrogen, Eugene, Oreg.) for 1 h at room temperature. Labelled sections were washed and mounted with fluorescent medium containing 4,6-diamidino-2-phenylindole (DAPI) for staining cell nuclei (Vector Laboratories, Burlingame, Calif.). The sections positives for GFAP were captured in a confocal microscope (FV1000, Olympus. Hamburg, Germany) obtaining optical sections with a 488 nm laser for Alexa 488 and a 405 nm laser for DAPI. GFAP fluorescence was quantified in each image with the Fluoview ASW 1.4 software (Olympus, Hamburg, Germany). Results were normalized to the analysed area (21705.33 μm^2).

Row | Compound | amount of somatostatin in the retina [1] | retinal degeneration (TUNEL positive cells, confocal images) [2] | % Apoptotic cells GCL [2] [%] | % Apoptotic cells INL [2] [%] | % Apoptotic cells ONL [2] [%] | % Apoptotic cells RPE [2] [%] | difference between the amplitude of the second OP (OP2) of the b-wave at 0 db ([3]; Left eye (2 drops per day)) | implicit time of the b-wave at 0 db compared to pretreatment ([3]; Left eye (2 drops per day)) | difference between the amplitude of the second OP (OP2) of the b-wave at 0 db ([3]; Right eye (1 drop per day)) | implicit time of the b-wave at 0 db compared to pretreatment ([3]; Right eye (1 drop per day)) | b-wave amplitude at −10 db and 0 db [3] | b-wave amplitude at −30 db [3] | glial cell activation (GFAP expression, confocal images) [4] | GFAP fluorescence value [4]
1 | C[C@H](N)C(=O)NCC(=O)N[C@H]1CSSC[C@@H](C(=O)O)NC(=O)[C@H](CO)NC(=O)[C@H]([C@@H](C)O)NC(=O)[C@H](Cc2ccccc2)NC(=O)[C@H]([C@@H](C)O)NC(=O)[C@H](CCCCN)NC(=O)[C@H](Cc2c[nH]c3ccccc23)NC(=O)[C@H](Cc2ccccc2)NC(=O)[C@H](Cc2ccccc2)NC(=O)[C@H](CC(N)=O)NC(=O)[C@H](CCCCN)NC1=O [somatostatin, somatostatin-14] | greater in the treated eye on both animals | prevented retinal degeneration | 14 | 1 | 3 | 6 | 68.7 | 4.9 | 44.8 | 9.0 | prevented the diminishment | prevented the diminishment | prevented glial cell activation | 2514±90
2 | C[C@@H](O)[C@@H]1NC(=O)[C@H](CCCCN)NC(=O)[C@@H](Cc2c[nH]c3ccccc23)NC(=O)[C@H](Cc2ccccc2)NC(=O)[C@@H](NC(=O)[C@H](N)Cc2ccccc2)CSSC[C@@H](C(=O)N[C@H](CO)[C@@H](C)O)NC1=O [octreotide] | – | prevented retinal degeneration | 7 | 0.1 | 5 | 11 | 55.1 | 1.1 | 45.5 | 8.8 | effective only at the highest dose | prevented the diminishment | prevented glial cell activation | 1696±48
